pIC50: −log10 of the molar value.

One assay addresses ROCK2 (Homo sapiens, UniProt O75116). Nature of the assay: ROCK2 kinase IC50 assay (CISBIO HTRF KinEASE-STK S2 kit). The format is biochemical. Conditions: incubated at room temperature for 2 hours. The procedure, abridged:
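HTRF KinEASE-STK S2 format with recombinant ROCK2 (1.4 ng per well), STK-S2 substrate and ATP from 5× working solutions of 1.5 μM each, run 2 h at room temperature. Nine-point dilutions from 10000 nM top concentration; 665/615 nm emission ratio normalised to no-compound and no-kinase controls, curve-fitted for IC50.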

The next assay deals with ROCK1 (Homo sapiens (Human), UniProt Q13464). Kind of assay: ROCK1 kinase IC50 assay (biological test method similar to the ROCK2 assay). In kind it is biochemical. The method, boiled down:
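Compound dilution series (9 concentrations, top solution 10000 nM, DMSO-containing buffer) incubated 2 h at room temperature with kinase, STK-S2 substrate and ATP (5× working solutions of 1.5 µM each). Phosphorylation detected by HTRF (665/615 nm emission ratio) after 1 h; inhibition relative to full-reaction and kinase-free wells, fitted for IC50.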

ROCK1, sequence (Q13464 whole entry, species assumed): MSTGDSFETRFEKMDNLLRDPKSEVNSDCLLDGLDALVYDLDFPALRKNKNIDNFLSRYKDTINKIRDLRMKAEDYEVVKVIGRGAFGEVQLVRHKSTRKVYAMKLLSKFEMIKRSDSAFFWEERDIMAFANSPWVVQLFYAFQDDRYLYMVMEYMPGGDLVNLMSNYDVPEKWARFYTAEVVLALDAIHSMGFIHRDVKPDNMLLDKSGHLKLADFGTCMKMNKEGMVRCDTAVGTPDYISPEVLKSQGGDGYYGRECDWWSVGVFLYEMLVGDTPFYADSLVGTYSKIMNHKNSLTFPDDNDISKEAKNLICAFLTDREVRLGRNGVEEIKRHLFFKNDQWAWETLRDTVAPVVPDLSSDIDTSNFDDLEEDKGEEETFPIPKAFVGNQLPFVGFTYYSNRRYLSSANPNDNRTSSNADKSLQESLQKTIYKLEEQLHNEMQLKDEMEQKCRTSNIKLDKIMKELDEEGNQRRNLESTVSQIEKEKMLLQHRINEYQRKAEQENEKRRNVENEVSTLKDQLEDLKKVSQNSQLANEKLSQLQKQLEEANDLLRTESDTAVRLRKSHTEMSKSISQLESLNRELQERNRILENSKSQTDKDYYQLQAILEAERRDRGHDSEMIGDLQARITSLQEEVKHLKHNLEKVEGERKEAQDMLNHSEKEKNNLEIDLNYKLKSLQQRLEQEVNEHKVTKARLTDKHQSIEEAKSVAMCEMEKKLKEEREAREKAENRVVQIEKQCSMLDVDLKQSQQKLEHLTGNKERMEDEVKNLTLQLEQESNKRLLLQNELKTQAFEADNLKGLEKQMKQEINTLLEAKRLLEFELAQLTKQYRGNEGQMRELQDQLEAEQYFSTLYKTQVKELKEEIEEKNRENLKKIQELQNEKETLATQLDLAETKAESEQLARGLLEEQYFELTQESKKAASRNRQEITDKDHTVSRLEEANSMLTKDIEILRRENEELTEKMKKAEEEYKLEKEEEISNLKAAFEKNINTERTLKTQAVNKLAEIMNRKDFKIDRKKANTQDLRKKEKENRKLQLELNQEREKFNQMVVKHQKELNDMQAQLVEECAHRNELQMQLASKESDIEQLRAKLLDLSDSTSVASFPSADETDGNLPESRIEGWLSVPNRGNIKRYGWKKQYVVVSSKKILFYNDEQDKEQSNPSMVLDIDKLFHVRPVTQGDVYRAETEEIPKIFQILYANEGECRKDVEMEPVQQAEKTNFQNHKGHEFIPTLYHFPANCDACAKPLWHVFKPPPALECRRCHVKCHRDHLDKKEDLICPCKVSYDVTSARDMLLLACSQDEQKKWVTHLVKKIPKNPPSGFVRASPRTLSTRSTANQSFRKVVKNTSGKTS

Turning to `COc1cc(Nc2ccnc(-c3ccc4cc(C(=O)N5CC(F)(F)C5)n(C)c4c3)n2)ccc1-c1cn[nH]c1` [TDI01910, (3,3-difluoroazetidin-1-yl)(6-(4-((3-methoxy-4-(1H-pyrazol-4-yl)phenyl)amino)pyrimidin-2-yl)-1-methyl-1H-indol-2-yl)methanone], the pIC50 (in general, the negative decadic logarithm of the IC50, by convention in mol/L) at ROCK2 is 8.22; against ROCK1, under 5.00.

As for `COc1cc(Nc2ccnc(-c3ccc4cc(-c5nccs5)[nH]c4c3)n2)ccc1-c1cn[nH]c1` [TDI01912, N-(3-methoxy-4-(1H-pyrazol-4-yl)phenyl)-2-(2-(thiazol-2-yl)-1H-indol-6-yl)pyrimidin-4-amine], the pIC50 at ROCK2 was 7.36; against ROCK1, under 5.00.

Turning to `COc1cnc(-c2ccc3cc(C(=O)N4CC(F)(F)C4)n(C)c3c2)nc1Nc1ccc(-c2cn[nH]c2)cc1` [TDI01915, (6-(4-((4-(1H-pyrazol-4-yl)phenyl)amino)-5-methoxypyrimidin-2-yl)-1-methyl-1H-indol-2-yl)(3,3-difluoroazetidin-1-yl)methanone], the pIC50 on ROCK2 was 7.74; against ROCK1, under 5.00.

As for `Cn1c(C(=O)N2CC(F)(F)C2)cc2ccc(-c3nc(Nc4ccc(-c5cn[nH]c5)cc4)c4ccccc4n3)cc21` [TDI01918, (6-(4-((4-(1H-pyrazol-4-yl)phenyl)amino)quinazolin-2-yl)-1-methyl-1H-indol-2-yl)(3,3-difluoroazetidin-1-yl)methanone], the pIC50 against ROCK2 is 6.78; on ROCK1 it was under 5.00.

`Cn1c(-c2nccs2)cc2ccc(-c3nccc(Nc4ccc(-c5cn[nH]c5)cc4)n3)cc21` [TDI01919]: the figures for the pIC50 at ROCK2 and against ROCK1 were 7.21 and 5.39, respectively.

Turning to `COCn1c(C(=O)N2CC(F)(F)C2)cc2ccc(-c3nccc(Nc4ccc(-c5cn[nH]c5)cc4)n3)cc21` [TDI01920, (6-(4-((4-(1H-pyrazol-4-yl)phenyl)amino)pyrimidin-2-yl)-1-(methoxymethyl)-1H-indol-2-yl)(3,3-difluoroazetidin-1-yl)methanone], the pIC50 was 6.70 against ROCK2 and under 5.00 at ROCK1.

On to `C=Cn1c(C(=O)N2CC(F)(F)C2)cc2ccc(-c3nccc(Nc4ccc(-c5cn[nH]c5)cc4)n3)cc21` [TDI01923, (6-(4-((4-(1H-pyrazol-4-yl)phenyl)amino)pyrimidin-2-yl)-1-vinyl-1H-indol-2-yl)(3,3-difluoroazetidin-1-yl)methanone], for which the results for the pIC50 at ROCK2 and against ROCK1 were 7.30 and under 5.00, respectively.

Turning to `c1cc(Nc2ccc(-c3cn[nH]c3)nc2)nc(-c2ccc3cc(-c4nccs4)[nH]c3c2)n1` [TDI01940, N-(6-(1H-pyrazol-4-yl)pyridin-3-yl)-2-(2-(thiazol-2-yl)-1H-indol-6-yl)pyrimidin-4-amine], the pIC50 against ROCK2 was 6.83; against ROCK1, under 5.00.

`Cn1c(C(=O)N2CC(F)(F)C2)cc2ccc(-c3nc(Nc4ccc(-c5cn[nH]c5)cc4)c4ccsc4n3)cc21` [TDI01947, (6-(4-((4-(1H-pyrazol-4-yl)phenyl)amino)thieno[2,3-d]pyrimidin-2-yl)-1-methyl-1H-indol-2-yl)(3,3-difluoroazetidin-1-yl)methanone]: the values for the pIC50 against ROCK2 and against ROCK1 were 7.06 and under 5.00, respectively.

Turning to `Cn1c(C(=O)N2CC(F)(F)C2)cc2ccc(-c3nc(Nc4ccc(-c5cn[nH]c5)cc4)c4cccn4n3)cc21` [TDI01948, (6-(4-((4-(1H-pyrazol-4-yl)phenyl)amino)pyrrolo[2,1-f][1,2,4]triazin-2-yl)-1-methyl-1H-indol-2-yl)(3,3-difluoroazetidin-1-yl)methanone], the results for the pIC50 on ROCK2 and against ROCK1 were 6.99 and under 5.00, respectively.

On to `Cn1c(C(=O)N2CC(F)(F)C2)cc2ccc(-c3ncc(Cl)c(Nc4ccc(-c5cn[nH]c5)cc4)n3)cc21` [TDI01949, (6-(4-((4-(1H-pyrazol-4-yl)phenyl)amino)-5-chloropyrimidin-2-yl)-1-methyl-1H-indol-2-yl)(3,3-difluoroazetidin-1-yl)methanone], for which the figures for the pIC50 against ROCK2 and against ROCK1 were 7.23 and under 5.00, respectively.

In the case of `O=C(NC1CC(F)(F)C1)N1Cc2ccc(-c3nccc(Nc4ccc(-c5cn[nH]c5)cc4)n3)cc2C1` [TDI01951, 5-(4-((4-(1H-pyrazol-4-yl)phenyl)amino)pyrimidin-2-yl)-N-(3,3-difluorocyclobutyl) isoindoline-2-carboxamide], the pIC50 on ROCK2 is 7.57; on ROCK1, under 5.00.

With `Cc1[nH]ncc1-c1ccc(Nc2ccnc(-c3ccc4cc(C(=O)N5CC(F)(F)C5)n(C)c4c3)n2)cc1` [TDI01955, (3,3-difluoroazetidin-1-yl)(1-methyl-6-(4-((4-(5-methyl-1H-pyrazol-4-yl)phenyl)amino)pyrimidin-2-yl)-1H-indol-2-yl)methanone], the pIC50 is 7.48 at ROCK2 and under 5.00 against ROCK1.

As for `O=C(N1CCc2cc(-c3nccc(Nc4ccc(-c5cn[nH]c5)cc4)n3)ccc2C1)N1CC(F)(F)C1` [TDI01959, (6-(4-((4-(1H-pyrazol-4-yl)phenyl)amino)pyrimidin-2-yl)-3,4-dihydroisoquinolin-2(1H)-yl)(3,3-difluoroazetidin-1-yl)methanone], the pIC50 against ROCK2 is 6.88; on ROCK1 it was under 5.00.

`Cn1c(C(=O)N2CC(F)(F)C2)cc2ccc(-c3nc4c(c(Nc5ccc(-c6cn[nH]c6)cc5)n3)CCC4)cc21` [TDI01960, (6-(4-((4-(1H-pyrazol-4-yl)phenyl)amino)-6,7-dihydro-5H-cyclopenta[d]pyrimidin-2-yl)-1-methyl-1H-indol-2-yl)(3,3-difluoroazetidin-1-yl)methanone]: the pIC50 is 7.30 at ROCK2 and under 5.00 on ROCK1.

For `O=C(C1CC(F)(F)C1)N1Cc2ccc(-c3nccc(Nc4ccc5[nH]ncc5c4)n3)cc2C1` [TDI01967, (5-(4-((1H-indazol-5-yl)amino)pyrimidin-2-yl)isoindolin-2-yl)(3,3-difluorocyclobutyl) methanone], the pIC50 was 7.35 at ROCK2 and under 5.00 at ROCK1.

On to `CN1CCC[C@H]1C(=O)N1Cc2ccc(-c3nccc(Nc4ccc(-c5cn[nH]c5)cc4)n3)cc2C1` [TDI01968A, 5-(4-((4-(1H-pyrazol-4-yl)phenyl)amino)pyrimidin-2-yl)-2-(methyl-L-prolyl)isoindoline], for which the pIC50 against ROCK2 is 6.53; against ROCK1, under 5.00.

In the case of `CN1CCc2nc(C(=O)N3Cc4ccc(-c5nccc(Nc6ccc(-c7cn[nH]c7)cc6)n5)cc4C3)sc2C1` [TDI01973, (5-(4-((4-(1H-pyrazol-4-yl)phenyl)amino)pyrimidin-2-yl)isoindolin-2-yl)(5-methyl-4,5,6,7-tetrahydrothiazolo[5,4-c]pyridin-2-yl)methanone], the pIC50 is 7.28 at ROCK2 and under 5.00 against ROCK1.

Turning to `CN(C)C(=O)N1Cc2ccc(-c3nc(Nc4ccc(-c5cn[nH]c5)cc4)c4occc4n3)cc2C1` [TDI01974, 5-(4-((4-(1H-pyrazol-4-yl)phenyl)amino)furo[3,2-d]pyrimidin-2-yl)-N,N-dimethylisoindoline-2-carboxamide], the pIC50 against ROCK2 is 6.73; against ROCK1, under 5.00.

As for `O=C(C1CC(F)(F)C1)N1Cc2ccc(-c3nccc(Nc4ccc(-c5cn[nH]c5)cn4)n3)cc2C1` [TDI01979, (5-(4-((5-(1H-pyrazol-4-yl)pyridin-2-yl)amino)pyrimidin-2-yl)isoindolin-2-yl)(3,3-difluorocyclobutyl)methanone], the pIC50 is 6.86 against ROCK2 and under 5.00 against ROCK1.

As for `CC(O)C(=O)N1Cc2ccc(-c3nccc(Nc4ccc(-c5cn[nH]c5)cc4)n3)cc2C1` (stereo not drawn) [TDI01989, 1-(5-(4-((4-(1H-pyrazol-4-yl)phenyl)amino)pyrimidin-2-yl)isoindolin-2-yl)-2-hydroxypropan-1-one], the pIC50 was 6.41 against ROCK2 and under 5.00 on ROCK1.
